Reference: PMC6358602, “The catalytic activity and secretion of zebrafish RNases are essential for their in vivo function in motor neurons and vasculature” (Scientific Reports, 2019)

Target: T1, human angiogenin (hANG) (Homo sapiens, UniProt P03950)
T1 construct: gene ANG; [Met−1]-form
Assay: fluorogenic RNase activity assay with and without NCI-65828 (Fig. 1E)
Type: biochemical

T1 sequence (P03950 25-147): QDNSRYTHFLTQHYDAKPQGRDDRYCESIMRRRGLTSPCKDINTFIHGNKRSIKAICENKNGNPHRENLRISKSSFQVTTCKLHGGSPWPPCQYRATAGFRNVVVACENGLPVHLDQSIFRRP

## Nc1ccc(/N=N/c2ccc(-c3ccc(O)cc3)cc2)c2ccc(S(=O)(=O)O)cc12 [NCI-65828, 8-amino-5-(4′-hydroxybiphenyl-4-azo) napathlene-2-sulphate]
  fluorogenic RNase activity assay with and without NCI-65828 (Fig. 1E): Enzyme kinetic data for Rnasel and hANG native protein and in the presence of NCI-65828.
